Laboratory results reported in ChEMBL document CHEMBL1132850, “Design, synthesis and structure-activity relationship of a series of arginine aldehyde factor Xa inhibitors. Part 1: structures based on the (D)-Arg-Gly-Arg tripeptide sequence” (Bioorg Med Chem Lett, 2000).
pIC50: −log10 of the molar value. Square brackets hold non-standard residues; d marks the D form. Peptide text beside a SMILES is read from it. * marks the point of attachment. ξ: configuration not given here. 1Nal = N[C@@H](Cc1cccc2ccccc12)C(=O)O; ξR = N=C(N)NCCCC(N)C(=O)O; Boc = CC(C)(C)OC(=O)*; ξP = O=C(O)C1CCCN1

Key:
Prothrombin = Prothrombin (Homo sapiens, UniProt P00734); experiment: Inhibitory activity against coagulation factor II (thrombin).
[1] = Inhibitory activity against prothrombinase complex (IIase).
[2] = molecular target: Thrombin and coagulation factor X (Homo sapiens) (UniProt P00734+P00742); experiment: Ratio of factor Xa inhibitory activity to that of factor IIa inhibitory activity; format: protein assay
Thrombin and coagulation factor X (Homo sapiens), sequence (P00742 whole entry, looked up, other chains not shown): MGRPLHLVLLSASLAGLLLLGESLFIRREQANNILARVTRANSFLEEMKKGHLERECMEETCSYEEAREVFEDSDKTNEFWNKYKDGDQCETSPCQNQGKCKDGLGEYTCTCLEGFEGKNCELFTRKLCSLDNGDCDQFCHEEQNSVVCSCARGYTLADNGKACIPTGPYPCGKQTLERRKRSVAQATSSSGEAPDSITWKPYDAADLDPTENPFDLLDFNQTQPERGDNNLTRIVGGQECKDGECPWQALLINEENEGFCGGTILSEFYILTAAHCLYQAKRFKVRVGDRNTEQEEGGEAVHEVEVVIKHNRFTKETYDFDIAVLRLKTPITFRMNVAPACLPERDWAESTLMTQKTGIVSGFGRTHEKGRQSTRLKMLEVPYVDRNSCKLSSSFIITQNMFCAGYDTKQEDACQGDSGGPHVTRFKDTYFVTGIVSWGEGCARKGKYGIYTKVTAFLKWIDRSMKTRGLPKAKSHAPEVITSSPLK

Coagulation factor X [3] = molecular target: Coagulation factor X (Homo sapiens, UniProt P00742); experiment: Inhibitory activity against coagulation factor X.
Coagulation factor X (Homo sapiens, UniProt P00742), sequence (P00742 41-179 limits assumed): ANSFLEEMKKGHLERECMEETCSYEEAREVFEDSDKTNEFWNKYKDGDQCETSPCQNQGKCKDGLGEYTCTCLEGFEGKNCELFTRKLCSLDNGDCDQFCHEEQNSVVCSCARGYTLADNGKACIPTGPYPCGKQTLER
Coagulation factor X (Homo sapiens, UniProt P00742), sequence (P00742 235-488 limits assumed): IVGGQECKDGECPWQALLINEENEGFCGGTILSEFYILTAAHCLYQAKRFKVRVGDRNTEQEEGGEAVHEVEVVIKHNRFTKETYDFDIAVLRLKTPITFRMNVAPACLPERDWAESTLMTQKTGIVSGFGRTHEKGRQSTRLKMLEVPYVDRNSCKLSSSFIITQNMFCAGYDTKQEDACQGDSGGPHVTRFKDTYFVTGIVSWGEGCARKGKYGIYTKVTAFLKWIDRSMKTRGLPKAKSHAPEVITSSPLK

Coagulation factor X [4] = molecular target: Coagulation factor X (Bos taurus, UniProt P00743); experiment: Second-order rate of substrate hydrolysis (kcat/Km) by bovine coagulation factor X
Coagulation factor X (Bos taurus, UniProt P00743), sequence (P00743 41-180 limits assumed): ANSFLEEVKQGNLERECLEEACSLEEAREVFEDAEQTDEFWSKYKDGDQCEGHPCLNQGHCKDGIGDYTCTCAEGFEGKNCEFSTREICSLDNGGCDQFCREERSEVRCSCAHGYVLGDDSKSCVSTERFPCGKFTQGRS
Coagulation factor X (Bos taurus, UniProt P00743), sequence (P00743 234-492 limits assumed): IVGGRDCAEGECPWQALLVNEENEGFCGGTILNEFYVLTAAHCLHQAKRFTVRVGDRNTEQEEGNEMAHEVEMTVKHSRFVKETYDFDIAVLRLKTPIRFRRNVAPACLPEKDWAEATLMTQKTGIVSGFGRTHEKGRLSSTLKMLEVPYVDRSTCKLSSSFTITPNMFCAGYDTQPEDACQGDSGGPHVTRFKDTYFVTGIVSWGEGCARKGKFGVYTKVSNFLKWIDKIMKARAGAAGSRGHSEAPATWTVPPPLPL

Structure (SMILES) | pIC50 (Prothrombin) | pIC50 [1] | Ratio [2] | pIC50 (Coagulation factor X [3]) | kcat/Km (Coagulation factor X [4]) [M⁻¹ s⁻¹]
N=C(N)NCCCC(C=O)NC(=O)CNC(=O)[C@H](CCCNC(=N)N)NC(=O)COc1ccc2ccccc2c1 (some centres undefined) | < 4.00 |  |  |  | 
N=C(N)NCCCC(C=O)NC(=O)CNC(=O)[C@H](CCCNC(=N)N)NS(=O)(=O)Cc1ccccc1 (some centres undefined) | 4.30 |  |  |  | 
CC(C)(C)OC(=O)NC(CCCNC(N)=O)C(=O)NCC(=O)N[C@H](C=O)CCCN=C(N)N (single isomer, unassigned) | < 4.00 |  |  |  | 
N=C(N)NCCCC(NC(=O)CCc1ccccc1)C(=O)NCC(=O)N[C@H](C=O)CCCNC(=N)N (single isomer, unassigned) |  | 5.70 | 375 |  | 
NC(N)=NCCCC(N)C(=O)NCC(=O)N[C@H](C=O)CCCN=C(N)N (single isomer, unassigned) | 4.26 | 6.08 | 290 | 6.72 | 
CC(C)(C)OC(=O)NC(CCCN=C(N)N)C(=O)NC(C)(C)C(=O)N[C@H](C=O)CCCN=C(N)N (single isomer, unassigned) | < 3.30 |  |  |  | 
CC(C)(C)OC(=O)N[C@@H](CCCNC(=N)N)C(=O)NCCC(=O)NC(C=O)CCCNC(=N)N (some centres undefined) | < 3.30 |  |  |  | 
N=C(N)NCCCC(C=O)NC(=O)CNC(=O)[C@H](CCCNC(=N)N)NS(=O)(=O)CCc1cccc2ccccc12 (some centres undefined) | 4.41 | 7.70 | 1500 | 7.57 | 
CC(C)(C)OC(=O)NC(CCCCN)C(=O)NCC(=O)N[C@H](C=O)CCCN=C(N)N (single isomer, unassigned) | < 4.00 |  |  |  | 
N=C(N)NCCCC(NC(=O)C(=O)O)C(=O)NCC(=O)N[C@H](C=O)CCCNC(=N)N (single isomer, unassigned) |  | 6.20 |  |  | 
N=C(N)NCCC[C@@H](C=O)NC(=O)CNC(=O)C(CCCN=C(N)N)NC(=O)NCc1ccccc1 (single isomer, unassigned) | 3.77 | 6.74 | 770 | 6.66 | 
CC(C)(C)OC(=O)N[C@@H](CCCNC(=N)N)C(=O)N1CCCC1C(=O)NC(C=O)CCCNC(=N)N (stereo partly drawn) (Boc-Arg-[ξP]-[ξR]-aldehyde) | 6.70 |  |  | 7.34 | 
CC(=N)NCCCC(NC(=O)OC(C)(C)C)C(=O)NCC(=O)N[C@H](C=O)CCCN=C(N)N (single isomer, unassigned) | 4.06 | 5.00 | 88 | 6.00 | 
CC(C)(C)OC(=O)NC(CCCCN=C(N)N)C(=O)NCC(=O)N[C@H](C=O)CCCN=C(N)N (single isomer, unassigned) | 3.40 | 6.77 | 4000 |  | 
N=C(N)NCCCC(NC(=O)CCC(=O)O)C(=O)NCC(=O)N[C@H](C=O)CCCNC(=N)N (single isomer, unassigned) | < 4.00 |  |  |  | 
CN(CC(=O)NC(C=O)CCCNC(=N)N)C(=O)[C@H](CCCNC(=N)N)NS(=O)(=O)Cc1ccccc1 (some centres undefined) | 5.70 |  |  | 7.70 | 

Structure (SMILES) | pIC50 (Prothrombin) | pIC50 [1] | Ratio [2] | pIC50 (Coagulation factor X [3]) | kcat/Km (Coagulation factor X [4]) [M⁻¹ s⁻¹]
C/N=C(\N(C)C)N(C)CCCC[C@H](NC(=O)OC(C)(C)C)C(=O)NCC(=O)NC(C=O)CCCN=C(N)N (some centres undefined) |  | 4.92 | 30 |  | 
N=C(N)NCCCC(C=O)NC(=O)CNC(=O)[C@H](CCCN=C(N)N)NS(=O)(=O)CCc1ccccc1 (some centres undefined) |  | 7.42 | 2300 |  | 
CC(C)(C)OC(=O)N[C@@H](CCCN=C(N)N)C(=O)N[C@@H](Cc1cccc2ccccc12)C(=O)NC(C=O)CCCN=C(N)N (stereo partly drawn) (Boc-Arg-[1Nal]-[ξR]-aldehyde) |  | 6.47 | 300 |  | 
CC[C@H](C)[C@H](NC(=O)c1ccccc1)C(=O)N[C@@H](CCC(=O)O)C(=O)NCC(=O)N[C@@H](CCCN=C(N)N)C(=O)Nc1ccc([N+](=O)[O-])cc1 (HELM PEPTIDE1{[O=C(c1ccccc1)[*:2]].I.E.G.R.[O=[N+]([O-])c1ccc(N[*:1])cc1]}$$$$V2.0) |  |  |  |  | 350000
CC(C)(C)OC(=O)N[C@@H](CCCN=C(N)N)C(=O)N1CCCC1C(=O)NC(C=O)CCCN=C(N)N (stereo partly drawn) (Boc-Arg-[ξP]-[ξR]-aldehyde) |  | 7.68 | 4 |  | 
C/N=C(\N(C)C)N(C)CCCC[C@H](NC(=O)OC(C)(C)C)C(=O)NCC(=O)NC(C=O)CCCNC(=N)N (some centres undefined) | < 4.00 |  |  | 5.52 | 
CN(CC(=O)NC(C=O)CCCN=C(N)N)C(=O)[C@H](CCCN=C(N)N)NS(=O)(=O)Cc1ccccc1 (some centres undefined) |  | 7.24 | 100 |  | 
N=C(N)NCCC[C@H](NC(=O)CNC(=O)[C@@H](CCCNC(=N)N)NC(=O)OCc1ccccc1)C(=O)Nc1ccc([N+](=O)[O-])cc1 (HELM PEPTIDE1{[O=C(OCc1ccccc1)[*:2]].[dR].G.R.[O=[N+]([O-])c1ccc(N[*:1])cc1]}$$$$V2.0) |  |  |  |  | 2.27e+06
CC(C)(C)OC(=O)N[C@@H](CCCNC(=N)N)C(=O)N[C@@H](Cc1cccc2ccccc12)C(=O)NC(C=O)CCCNC(=N)N (stereo partly drawn) (Boc-Arg-[1Nal]-[ξR]-aldehyde) | 4.38 |  |  | 6.85 | 
CCOC(=O)NC(CCCN=C(N)N)C(=O)NCC(=O)N[C@H](C=O)CCCN=C(N)N (single isomer, unassigned) | < 4.00 |  |  | 7.52 | 
CC(C)(C)OC(=O)NC(CCCN)C(=O)NCC(=O)N[C@H](C=O)CCCN=C(N)N (single isomer, unassigned) | < 3.30 | 4.19 | 42 | 4.92 | 
CC(C)(C)OC(=O)NC(CCCN=C(N)N)C(=O)NCC(=O)N[C@H](C=O)CCCN=C(N)N (single isomer, unassigned; 4) |  |  |  | 5.70 | 
CC(C)(C)OC(=O)N[C@@H](CCCN=C(N)N)C(=O)N1CCC[C@H]1C(=O)NC(C=O)CCCN=C(N)N (stereo partly drawn) (Boc-Arg-Pro-[ξR]-aldehyde) | < 3.30 | 3.36 | 8 | 4.22 | 
N=C(N)NCCCC(NC(=O)CC(=O)O)C(=O)NCC(=O)N[C@H](C=O)CCCNC(=N)N (single isomer, unassigned) | < 4.00 |  |  | 7.00 | 
N=C(N)NCCCC(C=O)NC(=O)CNC(=O)[C@H](CCCNC(=N)N)NS(=O)(=O)CCc1ccccc1 (some centres undefined) | 4.19 |  |  | 7.55 | 
